Test systems include 786-0 renal; ACHN renal; EKVX NSCLC; HCT-116 colon; HOP-62 NSCLC; HS 578T breast; HT29 colon; LOX IMVI melanoma; MCF7 breast; NCI-H23 lung; OVCAR-8 ovarian; SK-MEL-2 melanoma; SK-MEL-28 melanoma; SN12C renal; SNB-19 CNS; SW-620 colon; UO-31 renal; SK-MEL-5 melanoma; RXF 393 renal.
Common to all, as to test: inhibition of tumour cell growth, NCI panel, 48 h

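Where inhibition never reached the appropriate level, the endpoint shown equals the highest concentration tested. Otherwise, values were interpolated linearly from a five-concentration, 48-hour dose response in 96-well plates. Definition used: TGI = concentration required for complete inhibition of growth.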

As to `c1ccc(N=C(Nc2ccccc2)N2CCCCC2)cc1`, the TGI with 786-0 renal, in the assay with ACHN renal, in the assay on EKVX NSCLC, in the assay with HCT-116 colon, with HOP-62 NSCLC and with HS 578T breast was greater than 100 µM throughout. Further, the TGI with HT29 colon, in the assay with LOX IMVI melanoma, in the assay with MCF7 breast, with NCI-H23 lung, in the assay on OVCAR-8 ovarian and in the assay on SK-MEL-2 melanoma was greater than 100 µM each time. The TGI in the assay on SK-MEL-28 melanoma, in the assay with SN12C renal, with SNB-19 CNS, with SW-620 colon and in the assay on UO-31 renal was greater than 100 µM in each case.
Consider `CC(C)=NN/C(=N\S(=O)(=O)c1ccc(C)cc1)Nc1ccc(Cl)cc1`, for which the TGI in the assay with 786-0 renal, with ACHN renal, in the assay with EKVX NSCLC, in the assay on HCT-116 colon, with HOP-62 NSCLC and in the assay on HS 578T breast was greater than 100 µM in each case. Moreover, the TGI in the assay on HT29 colon, in the assay on LOX IMVI melanoma, in the assay on MCF7 breast, in the assay with NCI-H23 lung, with OVCAR-8 ovarian and with SK-MEL-2 melanoma was greater than 100 µM each time. Further, the TGI with SK-MEL-28 melanoma, in the assay with SK-MEL-5 melanoma, in the assay on SN12C renal, with SNB-19 CNS, with SW-620 colon and with UO-31 renal was greater than 100 µM in each case.
Consider `CC1(C)O[C@@H]2[C@@H](COC(=O)c3ccccc3)C[C@@H](C#N)[C@@H]2O1`, for which the TGI in the assay on 786-0 renal, in the assay with ACHN renal, in the assay on HCT-116 colon, in the assay with HOP-62 NSCLC, in the assay on HS 578T breast and in the assay on HT29 colon was greater than 100 µM throughout. Further, the TGI in the assay with LOX IMVI melanoma, in the assay on MCF7 breast, in the assay on NCI-H23 lung, in the assay with OVCAR-8 ovarian, with RXF 393 renal and in the assay with SK-MEL-28 melanoma was greater than 100 µM each time. Besides, the TGI in the assay on SK-MEL-5 melanoma, in the assay with SN12C renal, with SNB-19 CNS, in the assay with SW-620 colon and with UO-31 renal was greater than 100 µM in each case.
Turning to `COC1CC(OC2C(C)OC(OC3C(C)OC(OC4C(O)CC(O[C@H]5CC[C@@]6(C)C(=CC[C@]7(O)[C@@H]6C[C@@H](OC(=O)/C=C/c6ccccc6)[C@@]6(C)[C@]7(O)CC[C@@]6(O)C(C)=O)C5)OC4C)CC3OC)CC2OC)OC(C)C1O` (stereo partly specified), the TGI in the assay with 786-0 renal, in the assay on ACHN renal, in the assay with EKVX NSCLC, in the assay with HCT-116 colon, with HOP-62 NSCLC and in the assay on HS 578T breast was greater than 6.25 µM throughout. For the same compound, the TGI with HT29 colon, in the assay on LOX IMVI melanoma, in the assay with MCF7 breast, in the assay on NCI-H23 lung, in the assay with OVCAR-8 ovarian and in the assay with SK-MEL-2 melanoma was greater than 6.25 µM each time. Further, the TGI with SK-MEL-5 melanoma, in the assay on SN12C renal, with SNB-19 CNS, with SW-620 colon and in the assay on UO-31 renal was greater than 6.25 µM each time.
Regarding `Cn1nc2ccc3nccc(N4CCN(CCO)CC4)c3c2n1`, the TGI with 786-0 renal, in the assay with ACHN renal, with HCT-116 colon, in the assay with HOP-62 NSCLC, in the assay with HS 578T breast and with HT29 colon was greater than 100 µM each time. The TGI with MCF7 breast, in the assay with NCI-H23 lung, in the assay with OVCAR-8 ovarian, in the assay on RXF 393 renal, in the assay with SK-MEL-2 melanoma and in the assay with SK-MEL-28 melanoma was greater than 100 µM each time. In addition, the TGI with SK-MEL-5 melanoma, in the assay on SN12C renal, in the assay with SNB-19 CNS, with SW-620 colon and in the assay with UO-31 renal was greater than 100 µM throughout.
As for `Cc1ccc2c(=O)c3cccc(CC(=O)O)c3[nH]c2c1C`, the TGI with 786-0 renal, in the assay with ACHN renal, with EKVX NSCLC, in the assay with HCT-116 colon, in the assay on HOP-62 NSCLC and in the assay with HS 578T breast was greater than 100 µM throughout. Besides, the TGI in the assay with HT29 colon, in the assay with LOX IMVI melanoma, in the assay with MCF7 breast, in the assay on NCI-H23 lung, with OVCAR-8 ovarian and with SK-MEL-28 melanoma was greater than 100 µM throughout. Moreover, the TGI in the assay with SK-MEL-5 melanoma, in the assay on SN12C renal, in the assay with SNB-19 CNS, with SW-620 colon and in the assay on UO-31 renal was greater than 100 µM in each case.
For the compound `COc1ccc(C2CC(c3ccccc3)=Nc3c(-c4ccccc4)nnn32)cc1` (stereo unspecified), the TGI with 786-0 renal, with ACHN renal, with HCT-116 colon, in the assay on HOP-62 NSCLC, with HS 578T breast and with HT29 colon was greater than 100 µM each time. Further, the TGI in the assay on LOX IMVI melanoma, with MCF7 breast, in the assay with NCI-H23 lung, with OVCAR-8 ovarian, in the assay with SK-MEL-2 melanoma and in the assay on SK-MEL-5 melanoma was greater than 100 µM each time. In addition, the TGI in the assay with SN12C renal, with SNB-19 CNS, with SW-620 colon and in the assay with UO-31 renal was greater than 100 µM each time.
Turning to `COc1ccc(C(=O)Cn2c(C(=O)/C=C/c3ccco3)nc3ccccc32)cc1`, the TGI in the assay on 786-0 renal was greater than 100 µM; in the assay with ACHN renal, greater than 100 µM; in the assay with HCT-116 colon, greater than 100 µM; in the assay with HOP-62 NSCLC, greater than 100 µM; in the assay on HS 578T breast, 63.8 µM; with HT29 colon, greater than 100 µM. Moreover, the TGI in the assay on LOX IMVI melanoma is greater than 100 µM; with MCF7 breast it was greater than 100 µM; in the assay on NCI-H23 lung it was greater than 100 µM; in the assay on RXF 393 renal it was greater than 100 µM; in the assay on SK-MEL-2 melanoma, 51.6 µM; with SK-MEL-28 melanoma, greater than 100 µM. The TGI in the assay with SK-MEL-5 melanoma, with SN12C renal, in the assay with SNB-19 CNS, in the assay on SW-620 colon and in the assay on UO-31 renal was greater than 100 µM each time.
Consider `O=C(O)CN1CCN2CCOCCOCCN(CC1)CCN(CC(=O)O)CC2`, for which the TGI in the assay with 786-0 renal, in the assay with ACHN renal, in the assay on EKVX NSCLC, in the assay on HCT-116 colon, in the assay on HOP-62 NSCLC and with HS 578T breast was greater than 100 µM throughout. Further, the TGI with HT29 colon, in the assay with LOX IMVI melanoma, in the assay with MCF7 breast, in the assay with OVCAR-8 ovarian, in the assay with SK-MEL-2 melanoma and in the assay on SK-MEL-28 melanoma was greater than 100 µM in each case. Moreover, the TGI in the assay on SK-MEL-5 melanoma, in the assay with SN12C renal, in the assay on SNB-19 CNS, in the assay with SW-620 colon and in the assay with UO-31 renal was greater than 100 µM in each case.
`O=C(NC(CS)C(=O)O)c1cccc2c(=O)c3ccccc3[nH]c12` (stereo unspecified): the TGI in the assay on 786-0 renal, with ACHN renal, in the assay on EKVX NSCLC, in the assay with HCT-116 colon, in the assay with HOP-62 NSCLC and in the assay on HS 578T breast was greater than 100 µM in each case. In addition, the TGI in the assay with HT29 colon, with LOX IMVI melanoma, in the assay with MCF7 breast, with NCI-H23 lung, with OVCAR-8 ovarian and in the assay on SK-MEL-2 melanoma was greater than 100 µM each time. Also, the TGI in the assay on SK-MEL-28 melanoma, in the assay on SK-MEL-5 melanoma, in the assay on SN12C renal, in the assay on SNB-19 CNS, in the assay on SW-620 colon and in the assay on UO-31 renal was greater than 100 µM in each case.
Take `COc1cc(C)c(/C=C/C(=O)N2C(=O)OC[C@@H]2c2ccccc2)c(C)c1`: the TGI in the assay on 786-0 renal, in the assay with ACHN renal, in the assay on EKVX NSCLC, with HCT-116 colon, with HOP-62 NSCLC and in the assay with HS 578T breast was greater than 100 µM throughout. The TGI with HT29 colon was 63.2 µM; in the assay on LOX IMVI melanoma it was greater than 100 µM; in the assay with NCI-H23 lung, greater than 100 µM; with OVCAR-8 ovarian, greater than 100 µM; with RXF 393 renal it was greater than 100 µM; in the assay on SK-MEL-2 melanoma it was greater than 100 µM. For the same compound, the TGI with SK-MEL-28 melanoma, with SK-MEL-5 melanoma, with SN12C renal, with SNB-19 CNS, in the assay on SW-620 colon and in the assay on UO-31 renal was greater than 100 µM in each case.
Consider `Cc1nc2ccc(S(=O)(=O)Nc3ccccc3)cc2c(=O)n1NC(=O)CNc1ccccc1`, for which the TGI with 786-0 renal, with ACHN renal, with EKVX NSCLC, in the assay with HCT-116 colon, in the assay on HOP-62 NSCLC and with HS 578T breast was greater than 100 µM each time. Moreover, the TGI in the assay on HT29 colon, in the assay on LOX IMVI melanoma, with MCF7 breast, in the assay on NCI-H23 lung, with OVCAR-8 ovarian and in the assay with SK-MEL-2 melanoma was greater than 100 µM throughout. Besides, the TGI with SK-MEL-28 melanoma, with SN12C renal, in the assay with SNB-19 CNS, in the assay on SW-620 colon and in the assay with UO-31 renal was greater than 100 µM each time.

For the origin of these results see PubChem BioAssay (NCI).
